# Target: T1, RIPK2 enzyme (Homo sapiens, UniProt O43353)
# T1 construct: purchased Carna 09-128
# Experiment: RIPK2 inhibition (ADP-Glo Kinase Assay)
# Type: biochemical
# Conditions: RIPK2 5 nM, ATP 150 μM, MBP substrate, read-out: RIPK2 IC50
# How it was run: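 Human RIPK2 (5 nM) preincubated with compound 30 min at room temperature in 50 mM HEPES pH 7.5, 10 mM MgCl2, 2 mM DTT, 1 mM EGTA, 0.01% Brij-35, 0.05% BSA; native swine MBP as substrate. ADP formed quantified by ADP-Glo luminescence; percent inhibition relative to DMSO and no-enzyme controls.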
# T1 sequence (O43353 1-299 limits assumed): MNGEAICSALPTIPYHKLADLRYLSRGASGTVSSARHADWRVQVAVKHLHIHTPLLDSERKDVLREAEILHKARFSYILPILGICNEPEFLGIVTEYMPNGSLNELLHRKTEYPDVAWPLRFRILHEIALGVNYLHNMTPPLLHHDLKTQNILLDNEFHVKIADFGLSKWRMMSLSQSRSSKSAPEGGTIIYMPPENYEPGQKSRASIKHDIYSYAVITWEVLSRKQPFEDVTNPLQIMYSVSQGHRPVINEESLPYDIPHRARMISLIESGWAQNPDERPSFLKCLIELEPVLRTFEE
row,SMILES,IC50
1,"Cc1cc(CC(=O)Nc2cnn(C(C)(C)C)c2)ccc1Oc1ccnc2ccc(-c3ncc(CO)cn3)cc12 [Compound 244, N-(1-(tert-butyl)-1H-pyrazol-4-yl)-2-(4-((6-(5-(hydroxymethyl)pyrimidin-2-yl)quinolin-4-yl)oxy)-3-methylphenyl)acetamide]",< 2.5 nM
2,"Cc1cc(CC(=O)Nc2cnn(C(C)(C)C)c2)ccc1Oc1ccnc2ccc(-c3ccc[nH]c3=O)cc12 [Compound 245, N-(1-(tert-butyl)-1H-pyrazol-4-yl)-2-(3-methyl-4-((6-(2-oxo-1,2-dihydropyridin-3-yl)quinolin-4-yl)oxy)phenyl)acetamide]",< 2.5 nM
3,"Cc1cc(CC(=O)Nc2cnn(C(C)(C)C)c2)ccc1Oc1ccnc2ccc(-c3cccn(C)c3=O)cc12 [Compound 246, N-(1-(tert-butyl)-1H-pyrazol-4-yl)-2-(3-methyl-4-((6-(1-methyl-2-oxo-1,2-dihydropyridin-3-yl)quinolin-4-yl)oxy)phenyl)acetamide]",3.8 nM
4,"Cc1cc(CC(=O)Nc2cnn(C(C)(C)C)c2)ccc1Oc1ccnc2ccc(-c3ncc[nH]c3=O)cc12 [Compound 247, N-(1-(tert-butyl)-1H-pyrazol-4-yl)-2-(3-methyl-4-((6-(3-oxo-3,4-dihydropyrazin-2-yl)quinolin-4-yl)oxy)phenyl)acetamide]",< 2.5 nM
5,"Cc1c(Oc2ccnc3ccc(S(=O)(=O)C4COC4)cc23)ccc(CC(=O)Nc2cnn(C(C)(C)C)c2)c1F [Compound 248, N-(1-(tert-butyl)-1H-pyrazol-4-yl)-2-(2-fluoro-3-methyl-4-((6-(oxetan-3-ylsulfonyl)quinolin-4-yl)oxy)phenyl)acetamide]",< 2.5 nM
6,"Cc1c(Oc2ccnc3ccc(S(=O)(=O)C4CCOCC4)cc23)ccc(CC(=O)Nc2cnn(C(C)(C)C)c2)c1F [Compound 249, N-(1-(tert-butyl)-1H-pyrazol-4-yl)-2-(2-fluoro-3-methyl-4-((6-((tetrahydro-2H-pyran-4-yl)sulfonyl)quinolin-4-yl)oxy)phenyl)acetamide]",< 2.5 nM
7,"Cc1cc(CC(=O)Nc2cnn(C(C)(C)C)c2)ccc1Oc1ccnc2ccc(CN3CCNCC3)cc12 [Compound 252, N-(1-(tert-butyl)-1H-pyrazol-4-yl)-2-(3-methyl-4-((6-(piperazin-1-ylmethyl)quinolin-4-yl)oxy)phenyl)acetamide]",< 2.5 nM
8,"Cc1cc(CC(=O)Nc2cnn(C(C)(C)C)c2)ccc1Oc1ccnc2ccc(S(N)(=O)=O)cc12 [Compound 254, N-(1-(tert-butyl)-1H-pyrazol-4-yl)-2-(3-methyl-4-((6-sulfamoylquinolin-4-yl)oxy)phenyl)acetamide]",< 2.5 nM
9,"CNS(=O)(=O)c1ccc2nccc(Oc3ccc(CC(=O)Nc4cnn(C(C)(C)C)c4)cc3C)c2c1 [Compound 255, N-(1-(tert-butyl)-1H-pyrazol-4-yl)-2-(3-methyl-4-((6-(N-methylsulfamoyl)quinolin-4-yl)oxy)phenyl)acetamide]",< 2.5 nM
10,"Cc1cc(CC(=O)Nc2cnn(C(C)(C)C)c2)ccc1Oc1ccnc2ccc(S(=O)(=O)N(C)C)cc12 [Compound 256, N-(1-(tert-butyl)-1H-pyrazol-4-yl)-2-(4-((6-(N,N-dimethylsulfamoyl)quinolin-4-yl)oxy)-3-methylphenyl)acetamide]",< 2.5 nM
11,"Cc1cc(CC(=O)Nc2cnn(C(C)(C)C)c2)ccc1Oc1ccnc2ccc(S(=O)(=O)N3CCCC3)cc12 [Compound 257, N-(1-(tert-butyl)-1H-pyrazol-4-yl)-2-(3-methyl-4-((6-(pyrrolidin-1-ylsulfonyl)quinolin-4-yl)oxy)phenyl)acetamide]",< 2.5 nM
12,"Cc1cc(CC(=O)Nc2cnn(C(C)(C)C)c2)ccc1Oc1ccnc2ccc(S(=O)(=O)N3CCC3)cc12 [Compound 258, 2-(4-((6-(azetidin-1-ylsulfonyl)quinolin-4-yl)oxy)-3-methylphenyl)-N-(1-(tert-butyl)-1H-pyrazol-4-yl)acetamide]",< 2.5 nM
13,"Cc1cc(CC(=O)Nc2cnn(C(C)(C)C)c2)ccc1Oc1ccnc2ccc(S(=O)(=O)N3CC(F)C3)cc12 [Compound 259, N-(1-(tert-butyl)-1H-pyrazol-4-yl)-2-(4-((6-((3-fluoroazetidin-1-yl)sulfonyl)quinolin-4-yl)oxy)-3-methylphenyl)acetamide]",< 2.5 nM
14,"Cc1cc(CC(=O)Nc2cnn(C(C)(C)C)c2)ccc1Oc1ccnc2ccc(S(=O)(=O)N3CC(C#N)C3)cc12 [Compound 260, N-(1-(tert-butyl)-1H-pyrazol-4-yl)-2-(4-((6-((3-cyanoazetidin-1-yl)sulfonyl)quinolin-4-yl)oxy)-3-methylphenyl)acetamide]",2.5 nM
15,"Cc1cc(CC(=O)Nc2cnn(C(C)(C)C)c2)ccc1Oc1ccnc2ccc(S(=O)(=O)N3CCOCC3)cc12 [Compound 261, N-(1-(tert-butyl)-1H-pyrazol-4-yl)-2-(3-methyl-4-((6-(morpholinosulfonyl)quinolin-4-yl)oxy)phenyl)acetamide]",< 2.5 nM
16,"Cc1cc(CC(=O)Nc2cnn(C(C)(C)C)c2)ccc1Oc1ccnc2ccc(S(=O)(=O)N(C)CCO)cc12 [Compound 262, N-(1-(tert-butyl)-1H-pyrazol-4-yl)-2-(4-((6-(N-(2-hydroxyethyl)-N-methylsulfamoyl)quinolin-4-yl)oxy)-3-methylphenyl)acetamide]",< 2.5 nM
17,"COCCN(C)S(=O)(=O)c1ccc2nccc(Oc3ccc(CC(=O)Nc4cnn(C(C)(C)C)c4)cc3C)c2c1 [Compound 263, N-(1-(tert-butyl)-1H-pyrazol-4-yl)-2-(4-((6-(N-(2-methoxyethyl)-N-methylsulfamoyl)quinolin-4-yl)oxy)-3-methylphenyl)acetamide]",< 2.5 nM
18,"Cc1cc(CC(=O)Nc2cnn(C(C)(C)C)c2)ccc1Oc1ccnc2ccc(NS(C)(=O)=O)cc12 [Compound 264, N-(1-(tert-butyl)-1H-pyrazol-4-yl)-2-(3-methyl-4-((6-(methylsulfonamido)quinolin-4-yl)oxy)phenyl) acetamide]",< 2.5 nM
19,"Cc1cc(CC(=O)Nc2cnn(C(C)(C)C)c2)ccc1Oc1ccnc2ccc(N(C)S(C)(=O)=O)cc12 [Compound 265, N-(1-(tert-butyl)-1H-pyrazol-4-yl)-2-(3-methyl-4-((6-(N-methylmethyl-sulfonamido)quinolin-4-yl)oxy)phenyl) acetamide]",< 2.5 nM
20,"Cc1cc(CC(=O)Nc2cnn(C(C)(C)C)c2)ccc1Oc1ccnc2ccc(N3CCCS3(=O)=O)cc12 [Compound 266, N-(1-(tert-butyl)-1H-pyrazol-4-yl)-2-(4-((6-(1,1-dioxidoisothiazolidin-2-yl)quinolin-4-yl)oxy)-3-methylphenyl) acetamide]",< 2.5 nM

# More lines, now with the values ahead:
row,IC50,SMILES
1,< 2.5 nM,"CC(=O)N1CC(Oc2ccc3nccc(Oc4ccc(CC(=O)Nc5cnn(C(C)(C)C)c5)cc4C)c3c2)C1 [Compound 229, 2-(4-((6-((1-acetylazetidin-3-yl)oxy)quinolin-4-yl)oxy)-3-methyl-phenyl)-N-(1-(tert-butyl)-1H-pyrazol-4-yl)acetamide]"
2,< 2.5 nM,"Cc1cc(CC(=O)Nc2cc(C(C)(C)C)n(C)n2)ccc1Oc1ccnc2ccc(S(C)(=O)=O)cc12 [Compound 230, N-(5-(tert-butyl)-1-methyl-1H-pyrazol-3-yl)-2-(3-methyl-4-((6-(methylsulfonyl)quinolin-4-yl)oxy)phenyl)acetamide]"
3,< 2.5 nM,"[2H]C([2H])([2H])n1nc(NC(=O)Cc2ccc(Oc3ccnc4ccc(S(C)(=O)=O)cc34)c(C)c2)cc1C(C)(C)C [Compound 231, N-(5-(tert-butyl)-1-(methyl-d3)-1H-pyrazol-3-yl)-2-(3-methyl-4-((6-(methylsulfonyl)quinolin-4-yl)oxy)phenyl)acetamide]"
4,< 2.5 nM,"CCn1nc(NC(=O)Cc2ccc(Oc3ccnc4ccc(S(C)(=O)=O)cc34)c(C)c2)cc1C(C)(C)C [Compound 232, N-(5-(tert-butyl)-1-ethyl-1H-pyrazol-3-yl)-2-(3-methyl-4-((6-(methylsulfonyl)quinolin-4-yl)oxy)phenyl)acetamide]"
5,< 2.5 nM,"Cc1cc(CC(=O)Nc2cc(C(C)C)n(C)n2)ccc1Oc1ccnc2ccc(S(C)(=O)=O)cc12 [Compound 233, N-(5-isopropyl-1-methyl-1H-pyrazol-3-yl)-2-(3-methyl-4-((6-(methylsulfonyl)quinolin-4-yl)oxy)phenyl)acetamide]"
6,< 2.5 nM,"Cc1cc(CC(=O)Nc2cc(C3CC3)[nH]n2)ccc1Oc1ccnc2ccc(S(C)(=O)=O)cc12 [Compound 234, N-(5-cyclopropyl-1H-pyrazol-3-yl)-2-(3-methyl-4-((6-(methylsulfonyl)quinolin-4-yl)oxy)phenyl)acetamide]"
7,< 2.5 nM,"Cc1cc(CC(=O)Nc2cc(C3CC3)n(C)n2)ccc1Oc1ccnc2ccc(S(C)(=O)=O)cc12 [Compound 235, N-(5-cyclopropyl-1-methyl-1H-pyrazol-3-yl)-2-(3-methyl-4-((6-(methylsulfonyl)quinolin-4-yl)oxy)phenyl)acetamide]"
8,< 2.5 nM,"Cc1cc(CC(=O)Nc2cc(C(C)(C)O)[nH]n2)ccc1Oc1ccnc2ccc(S(C)(=O)=O)cc12 [Compound 236, N-(5-(2-hydroxypropan-2-yl)-1H-pyrazol-3-yl)-2-(3-methyl-4-((6-(methylsulfonyl)quinolin-4-yl)oxy)phenyl)acetamide]"
9,< 2.5 nM,"Cc1cc(CC(=O)Nc2cnn(C(C)(C)C)c2)ccc1Oc1ccnc2ccc(S(=O)(=O)CC3COC3)cc12 [Compound 240, N-(1-(tert-butyl)-1H-pyrazol-4-yl)-2-(3-methyl-4-((6-((oxetan-3-ylmethyl)sulfonyl)quinolin-4-yl)oxy)phenyl)acetamide]"
10,< 2.5 nM,"Cc1cc(CC(=O)Nc2cnn(C(C)(C)C)c2)ccc1Oc1ccnc2ccc(S(=O)(=O)C3CCC(=O)NC3)cc12 (stereo not drawn) [Compound 243, N-(1-(tert-butyl)-1H-pyrazol-4-yl)-2-(3-methyl-4-((6-((6-oxopiperidin-3-yl)sulfonyl)quinolin-4-yl)oxy)phenyl)acetamide]"
